Like-named read-outs stand apart in the source and are kept apart here.
How the values were obtained:
[1] = human, in vivo
Text: It should be noted, of course, that death due to the side effect of drugs is a serious problem also in countries other than Japan, apart from its frequency.

[2] = cited from earlier work
[3] = cited from earlier work; remark: listed apart in the source

| Compound | times higher frequency of diffuse alveolar damage in Japanese [1] | frequency of diffuse alveolar damage ([2]; in Japanese) [%] | frequency of diffuse alveolar damage ([2]; surveys on Asians) [%] | frequency of development of ILD in Chinese relative to Japanese ([3]; Chinese versus Japanese) | frequency of development of ILD in Westerners relative to the frequency in Japanese ([3]; Westerners versus Japanese) | frequency of development of interstitial lung disease (ILD) ([3]; in Japanese) |
| --- | --- | --- | --- | --- | --- | --- |
| COc1cc2ncnc(Nc3ccc(F)c(Cl)c3)c2cc1OCCCN1CCOCC1 [gefitinib] | not less than 10 times | – | – | – | – | – |
| C#Cc1cccc(Nc2ncnc3cc(OCCOC)c(OCCOC)cc23)c1 [erlotinib] | not less than 10 times | 2.7 | 0.2 | not more than the frequency of development in Japanese | not more than 1/10 | about 4% |
